According to patent US11078245B2, “Colon and pancreas cancer peptidomimetics” (PRECISION BIOLOGICS, INC., priority 2010, dated 2021):
Blank lines part the entries; values can stand above or below the molecule they belong to.

Tests used:
CFPAC1 cells = test: NEO-101-coupled Dynal beads rosette assay; format: cell-based, human; settings: for Positive rosette cells (%): Dynal beads coupled with NEO-101, premixed with M13 clone
Procedure: The M13 clones identified by the biopanning were also immunoassayed using magnetic beads. Aliquots of 5 μl M13 phage (10^11/10 μl) were mixed with 10 μl NEO-101-coupled Dynal® beads at RT for 20 min on a rotator. CFPAC1 cells (30 μl of 10^6 cells/ml) were added and incubated at 4° C. for 30 min. Rosetted cells were counted (>8 beads/cell).

NEO-101 = test: Biotinylated peptide binding ELISA; settings: biotinylated peptide on NEO-101 coated plate
Procedure: To solve the poor binding of peptides to 96 well plate, peptides were biotinylated using EZ-link micro NHS Biotinylation kit (Pierce Cat #21955), and labeling efficiency checked by dot blot (50%). The biotinylated peptide binding was analyzed in ELISA by adding 100 μl/well of NEO-101 (1 μg/ml) in CBS buffer to 96 well plate and incubating at 4° C. overnight, followed by three washes with TBST (0.05% Tween). The solution was blocked with 200μ/of 1% milk in TBS at RT for 20 min. Aliquots of 100 μl peptide-biotin ([…]) in 0.1% milk-TBS were added, and incubated at RT of 2 hr, followed by three washes with TBST. Streptavidin-HRP (100 μl of 1:2000 diluted in 1:10 diluted blocking buffer) was added, and the wells incubated at RT for 1 hr, followed by three washed. TMB was then added, and the wells were read at 450 nm. Positive controls for NPC-1C binding used 4B6-biotin. The results are shown in FIG. 11, which indicates biotinylated peptides bind to NPC-1C coated plate.

Colon Ag = test: ELISA of NEO-101 binding inhibition by peptides against Colon Ag; design: species or system human
Procedure: An ELISA analysis of the NEO-101 binding inhibition by peptide 4-1-3-C9 and 4-1-4-C12 against Colon Ag was conducted. Aliquots of 100 μl/well Colon Ag (3 μg/ml in CBS buffer) in 96 well plate were incubated at 4° C. overnight, and the wells washed three times with TBST (0.05% Tween). The wells were blocked with 200 μl of 1% milk at RT for 1 hour. A pre-mix of NEO-101-biotin and test peptide was added at 100 μl/well and incubated at RT of 1 hour, followed by three washes with TBST. Streptavidin-HRP (100 μl of 1:2000 dilution) was added and the reaction incubated at RT for 1 hour, and the wells washed three time. TMB was added, and the wells were read at 450 nm. The control was NEO-101-biotin.

[1] = test system: CFPAC1 culture supernatant; test: Peptide competition ELISA on CFPAC1 culture supernatant-coated plates; format: binding, human
From the text: FIG. 15A is a bar graph showing the percent blocking of NEO-101 by peptides (identified by biopanning an M13 phage library) on CFPAC1 culture supernatant-coated plates. FIG. 15B is a bar graph of OD values showing blocking of NEO-101 by peptides (identified by biopanning an M13 phage library) on CFPAC1 culture supernatant-coated plates.
Next, the inhibition of NEO-101 beads binding to CFAC1 Cells (rosetted cells) by peptides 4-1-4C12 and 4-1-4C12-R2 was investigated, as shown in FIG. 14A. FIG. 14B was the results from positive control with 4B6 in competitive beads assay. […] Therefore, the peptide 4-1-4-C12 is a peptidomimetic of the NPC-1 epitope and may be used to elicit a NPC-1 specific antibodies.

NEO-101 antibody = test: Immunofluorescence of 293T cells transfected with MUC5AC truncation constructs; format: cell-based; settings: 2 μg/ml NEO-101 antibody
Procedure: Six truncation constructs were made representing C-terminal truncations of the full-length MUC5AC protein (SEQ ID NO: 36).
293T cells were cultured on FBS coated cover slips for 24 hours. Cells were transiently transfected with 2 μg of MUC5AC constructs of Table 8 with LIPOFECTAMINE®. Cells were grown for about 72 hours, fixed with about 4% PFA in PBS, washed with PBS, permeabilized with about 0.2% […] in PBS and washed with PBS. Cells were then blocked with about 1% BSA in PBS, and about 2 μg/ml NEO-101 antibody was added to sample wells and about 2 μg/ml of an Isotype control was added for 1 hour at room temp. Cells were washed with PBS and second anti human-FITC antibody (1:500) was added to all wells and to the second antibody control wells. Cells were washed and mounted on slides with DAPI hard mount. Cover slides were allowed to sit over night at about 4° C. Slides were visualized with a Nikon Eclipse Ti microscope with an Andor camera. At least 3 random fields were counted per transfection.

Molecule: YSHSWHTLPEKSLDENGGGS (NPC-1 epitope peptidomimetic) [Peptide 4-1-2-C5]
- blocking of NEO-101-coupled beads binding to CFPAC1 cells (CFPAC1 cells): blocked
- Positive rosette cells (%) (CFPAC1 cells): 0%

- NEO-101 binding (NEO-101): Yes
- Blocking of NEO-101 antibody binding to colon Ag (Colon Ag): No
Molecule: YSHSWHTLPESGEVTSGGGS (NPC-1 epitope peptidomimetic) [Peptide 4-1-3-C8]
- blocking of NEO-101-coupled beads binding to CFPAC1 cells (CFPAC1 cells): blocked
- Positive rosette cells (%) (CFPAC1 cells): 0%

- NEO-101 binding (NEO-101): Yes
- Blocking of NEO-101 antibody binding to colon Ag (Colon Ag): Yes
Molecule: YSHSSLPDDWFRYINYGGGS (NPC-1 epitope peptidomimetic) [Peptide 4-1-4-C12]
- blocking of NEO-101-coupled beads binding to CFPAC1 cells (CFPAC1 cells): blocked
- Positive rosette cells (%) (CFPAC1 cells): 0%
- competition against bound CFPAC1 antigen with NEO-101 binding [1]: higher inhibition in low concentration comparing with 4-1-3C9

- competition against bound CFPAC1 antigen with NEO-101 binding [1]: significant competition
Molecule: SLPDDWFRYINYSLPDDWFRYINY (NPC-1 epitope peptidomimetic) [Peptide 4-1-4C12-R2]

- NEO-101 binding (NEO-101): Yes
- Blocking of NEO-101 antibody binding to colon Ag (Colon Ag): Yes
- competition against bound CFPAC1 antigen with NEO-101 binding [1]: significant competition
Molecule: YSHSFPEDYFRYTNQKGGGS (NPC-1 epitope peptidomimetic) [Peptide 4-1-3-C9]
- blocking of NEO-101-coupled beads binding to CFPAC1 cells (CFPAC1 cells): blocked
- Positive rosette cells (%) (CFPAC1 cells): 0%

- NEO-101 binding (NEO-101): No
- Blocking of NEO-101 antibody binding to colon Ag (Colon Ag): No
Molecule: YSHSVHAIEDNWSPRGGGGS (NPC-1 epitope peptidomimetic) [Peptide 4-1-3-C11, reference compound]
- Positive rosette cells (%) (CFPAC1 cells): 38%

B1: 1-136 (protein)
chain: ATMSVGRRKLALLWALALALACTTTHSQPVTRDCHLRCTWTKWFDVDFPSPGPHGGDKETYNNIIRSGEKICRRPEEITRLQCRAESHPEVSIEHLGQVVQCSREEGLVCRNQDQQGPFKMCLNYEVRVLCCETPK
modifications: MUC5AC truncation construct (136)
- Binds NPC-1? (NEO-101 antibody): No

B2: 1-151 (protein)
chain: ATMSVGRRKLALLWALALALACTTTHSQPVTRDCHLRCTWTKWFDVDFPSPGPHGGDKETYNNIIRSGEKICRRPEEITRLQCRAESHPEVSIEHLGQVVQCSREEGLVCRNQDQQGPFKMCLNYEVRVLCCETPKGCPVTSTPVTAPSTP
modifications: MUC5AC truncation construct (151)
- Binds NPC-1? (NEO-101 antibody): Yes

B3: Construct 1-338: C-terminal truncation construct of MUC5AC, SEQ ID NO: 50 (protein)
chain: ATMSVGRRKLALLWALALALACTTTHSQPVTRDCHLRCTWTKWFDVDFPSPGPHGGDKETYNNIIRSGEKICRRPEEITRLQCRAESHPEVSIEHLGQVVQCSREEGLVCRNQDQQGPFKMCLNYEVRVLCCETPKGCPVTSTPVTAPSTPSGRATSPTQSTSSWQKSRTTTLVTTSTTSTPQTSTTSAPTTSTTSAPTTSTTSAPTTSTTSTPQTSISSAPTSSTTSAPTSSTISARTTSIISAPTTSTTSSPTTSTTSATTTSTTSAPTSSTTSTPQTSKTSAATSSTTSSSGTTPSPVTTTSTASVSKTSTSHVSVSKTTHSQPVTRCTHHHHHH
modifications: MUC5AC truncation construct (338)
- Binds NPC-1? (NEO-101 antibody): binding activity

B4: 1-338 (protein)
chain: B3 chain
modifications: MUC5AC truncation construct (338)
- Binds NPC-1? (NEO-101 antibody): Yes

B5: Construct 1-85: C-terminal truncation construct of MUC5AC, SEQ ID NO: 45 (protein)
chain: ATMSVGRRKLALLWALALALACTTTHSQPVTRDCHLRCTWTKWFDVDFPSPGPHGGDKETYNNIIRSGEKICRRPEEITRLQCRA
modifications: MUC5AC truncation construct (85)
- Binds NPC-1? (NEO-101 antibody): no binding

B6: 1-85 (protein)
chain: B5 chain
modifications: MUC5AC truncation construct (85)
- Binds NPC-1? (NEO-101 antibody): No

B7: Construct 1-289: C-terminal truncation construct of MUC5AC, SEQ ID NO: 49 (protein)
chain: ATMSVGRRKLALLWALALALACTTTHSQPVTRDCHLRCTWTKWFDVDFPSPGPHGGDKETYNNIIRSGEKICRRPEEITRLQCRAESHPEVSIEHLGQVVQCSREEGLVCRNQDQQGPFKMCLNYEVRVLCCETPKGCPVTSTPVTAPSTPSGRATSPTQSTSSWQKSRTTTLVTTSTTSTPQTSTTSAPTTSTTSAPTTSTTSAPTTSTTSTPQTSISSAPTSSTTSAPTSSTISARTTSIISAPTTSTTSSPTTSTTSATTTSTTSAPTSSTTSTPQTSKTSAATSS
modifications: MUC5AC truncation construct (289)
- Binds NPC-1? (NEO-101 antibody): binding activity

B8: 1-289 (protein)
chain: B7 chain
modifications: MUC5AC truncation construct (289)
- Binds NPC-1? (NEO-101 antibody): Yes

B9: Construct 1-187: C-terminal truncation construct of MUC5AC, SEQ ID NO: 48 (protein)
chain: ATMSVGRRKLALLWALALALACTTTHSQPVTRDCHLRCTWTKWFDVDFPSPGPHGGDKETYNNIIRSGEKICRRPEEITRLQCRAESHPEVSIEHLGQVVQCSREEGLVCRNQDQQGPFKMCLNYEVRVLCCETPKGCPVTSTPVTAPSTPSGRATSPTQSTSSWQKSRTTTLVTTSTTSTPQTSTT
modifications: MUC5AC truncation construct (187)
- Binds NPC-1? (NEO-101 antibody): binding activity

B10: 1-187 (protein)
chain: B9 chain
modifications: MUC5AC truncation construct (187)
- Binds NPC-1? (NEO-101 antibody): Yes
